Series [1] can be described thus: La^3+ titration with macropa (UV, pH 7.4). It is filed as physicochemical. Conditions: pH 7.4, MOPS buffer, RT. The procedure: (§1) La^3+ and Lu^3+ Titrations with Macropa. The pH of a 10 mM 3-(N-morpholino)propanesulfonic acid (MOPS) buffer was adjusted to 7.4 using aqueous NMe4OH. The ionic strength was set at 100 mM using NMe4Cl. Stock solutions of LaCl3.6.8H2O (40 mM) and LuCl3.6H2O (21 mM) were prepared in 1 mM HCl. A stock solution of H2macropa.2HCl.4H2O (8.8 mM) was prepared in MOPS buffer. From these stock solutions, titration solutions containing macropa (100 μM) and either LaCl3 or LuCl3 were prepared in MOPS. Each metal ion titration was carried out at RT by adding 5-10 μL aliquots of titrant to a cuvette containing 3000 μL of macropa (100 μM) in MOPS. Each sample was allowed to equilibrate for 5 min following every addition before a spectrum was acquired. Complexation of the metal ion was monitored by the decrease in absorbance at 268 nm, the λmax of macropa. Titrant was added until no further spectral changes were detected.

Series [2] is described as follows: Lu^3+ titration with macropa (UV, pH 7.4). In kind it is physicochemical. To be noted: pH 7.4, MOPS buffer, RT. The procedure: as §1
The conditions of series [3]: Lu^3+ complex of macropa; cited from earlier work.
The conditions of series [4]: La^3+ complex of macropa; cited from earlier work.

As to `O=C(O)c1cccc(CN2CCOCCOCCN(Cc3cccc(C(=O)O)n3)CCOCCOCC2)n1` [macropa, N,N′-bis[(6-carboxy-2-pyridil)methyl]-4,13-diaza-18-crown-6], the “affinity of La^3+ for macropa by titration” value in series [1] is “high affinity”. The “affinity of Lu^3+ for macropa by titration” value in series [2] was “high affinity”. Besides, the “stability constant log KLuL” value in series [3] was 8.25. Further, in series [4], the “stability constant log KLaL” value is 14.99.
